# Target: GLP-1R (Homo sapiens, UniProt P43220)
# Test: GLP-1R Activation - cAMP Assay
# Format: cell-based
# Conditions: cAMP increase in CHO cells stably expressing GLP-1R; each compound run on one of the two cAMP assays (Assay 1 or Assay 2, not specified)
# How it was run: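 CHO cells stably expressing GLP-1R, plated at 1,000 cells/well overnight, then equilibrated 1 h in HBSS with 20 mM Hepes and 0.1% BSA. Agonist added as 10-point dose response for 30 min at 37 °C. cAMP measured by HTRF (Cisbio Gs Dynamic kit); EC50 from sigmoidal fit.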
# GLP-1R, sequence (P43220 24-463): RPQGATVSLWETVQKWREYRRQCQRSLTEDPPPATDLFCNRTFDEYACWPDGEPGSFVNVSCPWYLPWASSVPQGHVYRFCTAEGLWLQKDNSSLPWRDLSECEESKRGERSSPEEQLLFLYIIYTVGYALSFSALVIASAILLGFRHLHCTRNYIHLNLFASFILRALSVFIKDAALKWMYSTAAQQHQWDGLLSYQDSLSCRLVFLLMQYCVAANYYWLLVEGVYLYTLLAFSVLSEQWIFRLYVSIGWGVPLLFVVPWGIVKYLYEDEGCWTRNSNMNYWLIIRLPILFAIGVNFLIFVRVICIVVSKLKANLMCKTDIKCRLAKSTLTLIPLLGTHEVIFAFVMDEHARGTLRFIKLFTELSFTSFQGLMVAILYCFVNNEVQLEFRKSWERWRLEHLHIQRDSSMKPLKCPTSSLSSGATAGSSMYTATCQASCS
row,Compound,EC50 [nM]
1,"CC1(C)COC[C@H]1n1c(Cc2cc(F)c(-c3ccc(F)c(OCc4ccc(Cl)cc4)n3)cc2F)nc2c(F)cc(C(=O)O)cc21 [Example 228, (S)-2-(4-(6-((4-chlorobenzyl)oxy)-5-fluoropyridin-2-yl)-2,5-difluorobenzyl)-1-(4,4-dimethyltetrahydrofuran-3-yl)-4-fluoro-1H-benzo[d]imidazole-6-carboxylic acid]",0.047
2,"CC1(C)COC[C@H]1n1c(Cc2c(F)cc(-c3ccnc(OCc4ccc(Cl)cc4)n3)c(F)c2F)nc2c(F)cc(C(=O)O)cc21 [Example 229, (S)-2-(4-(2-((4-chlorobenzyl)oxy)pyrimidin-4-yl)-2,3,6-trifluorobenzyl)-1-(4,4-dimethyltetrahydrofuran-3-yl)-4-fluoro-1H-benzo[d]imidazole-6-carboxylic acid]",0.135
3,"CC1(C)COC[C@H]1n1c(Cc2cc(F)c(-c3ccnc(OCc4ccc(Cl)cc4)n3)cc2F)nc2c(F)cc(C(=O)O)cc21 [Example 230, (S)-2-(4-(2-((4-chlorobenzyl)oxy)pyrimidin-4-yl)-2,5-difluorobenzyl)-1-(4,4-dimethyltetrahydrofuran-3-yl)-4-fluoro-1H-benzo[d]imidazole-6-carboxylic acid]",0.034
4,"CC1(C)COC[C@H]1n1c(Cc2cc(F)c(-c3ccnc(OCc4ccc(Cl)cc4)n3)cc2F)nc2ccc(C(=O)O)cc21 [Example 231, (S)-2-(4-(2-((4-chlorobenzyl)oxy)pyrimidin-4-yl)-2,5-difluorobenzyl)-1-(4,4-dimethyltetrahydrofuran-3-yl)-1H-benzo[d]imidazole-6-carboxylic acid]",0.049
5,"COCCn1c(Cc2c(F)cc(-c3ccc(F)c(OCc4ccc(C#N)cc4F)n3)c(F)c2F)nc2c(F)cc(C(=O)O)cc21 [Example 232, 2-(4-(6-((4-cyano-2-fluorobenzyl)oxy)-5-fluoropyridin-2-yl)-2,3,6-trifluorobenzyl)-4-fluoro-1-(2-methoxyethyl)-1H-benzo[d]imidazole-6-carboxylic acid]",0.118
6,"CC1(C)COC[C@H]1n1c(Cc2ccc(-c3ccc(F)c(OCc4ccc(-n5ccnn5)cc4F)n3)cc2F)nc2c(F)cc(C(=O)O)cc21 [Example 235, (S)-1-(4,4-dimethyltetrahydrofuran-3-yl)-4-fluoro-2-(2-fluoro-4-(5-fluoro-6-((2-fluoro-4-(1H-1,2,3-triazol-1-yl)benzyl)oxy)pyridin-2-yl)benzyl)-1H-benzo[d]imidazole-6-carboxylic acid]",0.191
7,"CC1(C)COC[C@H]1n1c(Cc2ccc(-c3ccc(F)c(OCc4ccc(-n5ccnn5)cc4F)n3)cc2F)nc2ccc(C(=O)O)cc21 [Example 236, (S)-1-(4,4-dimethyltetrahydrofuran-3-yl)-2-(2-fluoro-4-(5-fluoro-6-((2-fluoro-4-(1H-1,2,3-triazol-1-yl)benzyl)oxy)pyridin-2-yl)benzyl)-1H-benzo[d]imidazole-6-carboxylic acid]",0.203
8,"Cc1cnc(COc2cccc(-c3cc(F)c(Cc4nc5ccc(C(=O)O)cc5n4[C@@H]4COCC4(C)C)cc3F)n2)c(F)c1 [Example 237, (S)-2-(2,5-difluoro-4-(6-((3-fluoro-5-methylpyridin-2-yl)methoxy)pyridin-2-yl)benzyl)-1-(4,4-dimethyltetrahydrofuran-3-yl)-1H-benzo[d]imidazole-6-carboxylic acid]",0.52
9,"CC1(C)COC[C@H]1n1c(Cc2cc(F)c(-c3cccc(OCc4ccc5c(c4)CN(S(C)(=O)=O)C5)n3)cc2F)nc2c(F)cc(C(=O)O)cc21 [Example 240, (S)-2-(2,5-difluoro-4-(6-((2-(methylsulfonyl)isoindolin-5-yl)methoxy)pyridin-2-yl)benzyl)-1-(4,4-dimethyltetrahydrofuran-3-yl)-4-fluoro-1H-benzo[d]imidazole-6-carboxylic acid]",0.127
10,"CC1(C)COC[C@H]1n1c(Cc2c(F)cc(-c3cccc(OCc4ccc(-n5ccnn5)cc4F)n3)c(F)c2F)nc2c(F)cc(C(=O)O)cc21 [Example 241, (S)-1-(4,4-dimethyltetrahydrofuran-3-yl)-4-fluoro-2-(2,3,6-trifluoro-4-(6-((2-fluoro-4-(1H-1,2,3-triazol-1-yl)benzyl)oxy)pyridin-2-yl)benzyl)-1H-benzo[d]imidazole-6-carboxylic acid]",0.013
11,"CC1(C)COC[C@H]1n1c(Cc2c(F)cc(-c3cccc(OCc4ccc(Cl)cc4F)n3)c(F)c2F)nc2c(F)cc(C(=O)O)cc21 [Example 242, (S)-2-(4-(6-((4-chloro-2-fluorobenzyl)oxy)pyridin-2-yl)-2,3,6-trifluorobenzyl)-1-(4,4-dimethyltetrahydrofuran-3-yl)-4-fluoro-1H-benzo[d]imidazole-6-carboxylic acid]",0.02
12,"CC1(C)COC[C@H]1n1c(Cc2c(F)cc(-c3cccc(OCc4ccc(Cl)cc4)n3)c(F)c2F)nc2c(F)cc(C(=O)O)cc21 [Example 243, (S)-2-(4-(6-((4-chlorobenzyl)oxy)pyridin-2-yl)-2,3,6-trifluorobenzyl)-1-(4,4-dimethyltetrahydrofuran-3-yl)-4-fluoro-1H-benzo[d]imidazole-6-carboxylic acid]",0.022
13,"CC1(C)COC[C@H]1n1c(Cc2c(F)cc(-c3cccc(OCc4ccc(C#N)cc4)n3)c(F)c2F)nc2c(F)cc(C(=O)O)cc21 [Example 244, (S)-2-(4-(6-((4-cyanobenzyl)oxy)pyridin-2-yl)-2,3,6-trifluorobenzyl)-1-(4,4-dimethyltetrahydrofuran-3-yl)-4-fluoro-1H-benzo[d]imidazole-6-carboxylic acid]",0.015
14,"CC1(C)COC[C@H]1n1c(Cc2c(F)cc(-c3cccc(OCc4ccc(C#N)cc4)n3)c(F)c2F)nc2ccc(C(=O)O)cc21 [Example 245, (S)-2-(4-(6-((4-cyanobenzyl)oxy)pyridin-2-yl)-2,3,6-trifluorobenzyl)-1-(4,4-dimethyltetrahydrofuran-3-yl)-1H-benzo[d]imidazole-6-carboxylic acid]",0.051
15,"CC1(C)COC[C@H]1n1c(Cc2c(F)cc(-c3cccc(OCc4ccc(Cl)cc4)n3)c(F)c2F)nc2ccc(C(=O)O)cc21 [Example 246, (S)-2-(4-(6-((4-chlorobenzyl)oxy)pyridin-2-yl)-2,3,6-trifluorobenzyl)-1-(4,4-dimethyltetrahydrofuran-3-yl)-1H-benzo[d]imidazole-6-carboxylic acid]",0.065
16,"CC1(C)COC[C@H]1n1c(Cc2c(F)cc(-c3cccc(OCc4ccc(Cl)cc4F)n3)c(F)c2F)nc2ccc(C(=O)O)cc21 [Example 247, (S)-2-(4-(6-((4-chloro-2-fluorobenzyl)oxy)pyridin-2-yl)-2,3,6-trifluorobenzyl)-1-(4,4-dimethyltetrahydrofuran-3-yl)-1H-benzo[d]imidazole-6-carboxylic acid]",0.151
17,"CC1(C)COC[C@H]1n1c(Cc2cc(F)c(-c3cccc(OCc4ccc5c(c4)CN(S(C)(=O)=O)C5)n3)cc2F)nc2ccc(C(=O)O)cc21 [Example 248, (S)-2-(2,5-difluoro-4-(6-((2-(methylsulfonyl)isoindolin-5-yl)methoxy)pyridin-2-yl)benzyl)-1-(4,4-dimethyltetrahydrofuran-3-yl)-1H-benzo[d]imidazole-6-carboxylic acid]",0.186

# Further lines, results first:
row,EC50 [nM],Compound
1,0.137,"CC1(C)COC[C@H]1n1c(Cc2cc(F)c(-c3cccc(OCc4ccc(Cl)nc4F)n3)cc2F)nc2ccc(C(=O)O)cc21 [Example 249, (S)-2-(4-(6-((6-chloro-2-fluoropyridin-3-yl)methoxy)pyridin-2-yl)-2,5-difluorobenzyl)-1-(4,4-dimethyltetrahydrofuran-3-yl)-1H-benzo[d]imidazole-6-carboxylic acid]"
2,0.048,"COCCn1c(Cc2c(F)cc(-c3cccc(OCc4ccc(-n5ccnn5)cc4F)n3)c(F)c2F)nc2c(F)cc(C(=O)O)cc21 [Example 250, 4-fluoro-1-(2-methoxyethyl)-2-(2,3,6-trifluoro-4-(6-((2-fluoro-4-(1H-1,2,3-triazol-1-yl)benzyl)oxy)pyridin-2-yl)benzyl)-1H-benzo[d]imidazole-6-carboxylic acid]"
3,0.079,"COCCn1c(Cc2c(F)cc(-c3cccc(OCc4ccc(Cl)cc4F)n3)c(F)c2F)nc2c(F)cc(C(=O)O)cc21 [Example 251, 2-(4-(6-((4-chloro-2-fluorobenzyl)oxy)pyridin-2-yl)-2,3,6-trifluorobenzyl)-4-fluoro-1-(2-methoxyethyl)-1H-benzo[d]imidazole-6-carboxylic acid]"
4,0.059,"Cc1ccc(COc2cccc(-c3cc(F)c(Cc4nc5ccc(C(=O)O)cc5n4[C@@H]4COCC4(C)C)cc3F)n2)c(F)n1 [Example 252, (S)-2-(2,5-difluoro-4-(6-((2-fluoro-6-methylpyridin-3-yl)methoxy)pyridin-2-yl)benzyl)-1-(4,4-dimethyltetrahydrofuran-3-yl)-1H-benzo[d]imidazole-6-carboxylic acid]"
5,0.071,"COCCn1c(Cc2c(F)cc(-c3cccc(OCc4ccc(-n5ccnn5)nc4)n3)c(F)c2F)nc2c(F)cc(C(=O)O)cc21 [Example 253, 2-(4-(6-((6-(1H-1,2,3-triazol-1-yl)pyridin-3-yl)methoxy)pyridin-2-yl)-2,3,6-trifluorobenzyl)-4-fluoro-1-(2-methoxyethyl)-1H-benzo[d]imidazole-6-carboxylic acid]"
6,0.088,"CC1(C)COC[C@H]1n1c(Cc2cc(F)c(-c3cccc(OCc4ccc(-n5ccnn5)nc4)n3)cc2F)nc2ccc(C(=O)O)cc21 [Example 254, (S)-2-(4-(6-((6-(1H-1,2,3-triazol-1-yl)pyridin-3-yl)methoxy)pyridin-2-yl)-2,5-difluorobenzyl)-1-(4,4-dimethyltetrahydrofuran-3-yl)-1H-benzo[d]imidazole-6-carboxylic acid]"
7,0.108,"COCCn1c(Cc2cc(F)c(-c3cccc(OCc4ccc(Cl)cc4)n3)cc2Cl)nc2c(F)cc(C(=O)O)cc21 [Example 255, 2-(2-chloro-4-(6-((4-chlorobenzyl)oxy)pyridin-2-yl)-5-fluorobenzyl)-4-fluoro-1-(2-methoxyethyl)-1H-benzo[d]imidazole-6-carboxylic acid]"

# Reference: US12570642B2, “GLP-IR modulating compounds” (Gilead Sciences, Inc., priority 2021, dated 2026)
